Data from US20240043420A1, “7-AZAINDOLE COMPOUNDS FOR INHIBITION OF BCR-ABL TYROSINE KINASES” (EnLiven Therapeutics, Inc., priority 2020, published 2024).

Experiments:
K562 cells = assay: K562 cell proliferation assay (CellTiter-Glo); type: cell-based; conditions: Homo sapiens, K562, 72 h, CellTiter-Glo viability, read-out: Cell Line (IC50, nM) K562
Outline: (§1)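 Cells in IMDM/10% FBS seeded at 2,000 (K562) or 1,500 (HL60) per well, exposed to serially diluted compounds for 72 h at 37 °C, 5% CO2. Viability by CellTiter-Glo luminescence, normalized between DMSO (high) and cell-free media (low) controls.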

HL60 cells = assay: HL60 cell proliferation assay (CellTiter-Glo); type: cell-based; conditions: Homo sapiens, HL-60, 72 h, CellTiter-Glo viability, read-out: Cell Line (IC50, nM) HL60
Outline: as §1

ABL1 = target: T1, ABL1 (Homo sapiens, UniProt P00519); assay: Luminescence-based ABL kinase assay (ADP-Glo, 300 μM ATP); type: biochemical
T1 construct: purchased Carna Biosciences
Outline: (§2)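 Buffer: 50 mM HEPES pH 7.5, 10 mM MgCl2, 1 mM EGTA, 2 mM DTT, 0.05% BSA. Compound preincubated 30 min at RT with kinase (3.325 nM in enzyme solution), then started with a Peptide 2 (6 μM) and ATP (1.2 mM) solution, both stock levels; 90 min at RT.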

ABL1 (T315I) = ABL1 (T315I) (Homo sapiens, UniProt P00519, T315I); assay: Luminescence-based ABL kinase assay (ADP-Glo, 300 μM ATP), T315I mutant; type: biochemical
Outline: as §2

pCRKL in K562 cells = assay: pCRKL ELISA assay in K562 cells; type: cell-based; conditions: Homo sapiens, 1.5 h, 90 minutes incubation, read-out: PCRKL ELISA, Cell Line IC50 (nM) K562
Experimental: K562 or Ba/F3 ABL T315I cells (2.0*10^5 cells/100 μl/well) were seeded in 96 well (Corning, cat #3799). Compounds were dissolved in DMSO, serially diluted in DMSO and then were added, mixed, and incubated for 90 minutes at 37° C., 5% CO2. Following the 90-minute incubation, plates were centrifuged for 5 min at 3000 RPM and supernatant was removed from each well. Cells were washed 3 times with 150 μl PBS prior to addition of 100 μl cell RIPA lysis buffer (Boston BioProducts, cat #BP-115D) supplied with 1×complete ULTRA cocktail inhibitor (Roche, 05892791001) and 1×PhosSTOP Phosphatase Inhibitor Cocktail Tablets (Roche, 04906837001). Cells were incubated with lysis buffer for 1 hour at 4° C. prior to storage at −80 C.
A capture antibody able to detect phosphorylated and non-phosphorylated CRKL (R&D Systems, cat #AF5127) was added to Meso Scale Discovery (MSD) standard bind plates (MSD, cat #L15XA-3) at 5 ug/mL and incubated at 4° C. overnight. The next day, plates were washed with PBS+0.05% Tween20 (PBST) and 150 μl of 5% BSA blocking solution was added for 1 hour at room temperature with shaking. Plates were washed with PBST. Lysates were thawed and 30 μl of lysate was added to the MSD plates and incubated for 2 hours at room temperature with shaking. MSD plates were washed with PBST and 30 μl of a detection antibody that binds phosphorylated pCRKL (R&D Systems, cat #MAB6910) was added at 1 μg/mL to each well. Plates were incubated for 1 hour at room temperature with shaking. Plates were washed with PBST prior to addition of 30 μl of a sulfo tagged goat anti mouse detection antibody (MSD cat #R32AC-1). Plates were incubated for 1 hour at room temperature with shaking. Plates were washed with PBST prior to addition of 150 ul of 1×MSD read buffer T (MSD, cat 4R92TC-2). Electrochemiluminescence (ECLU) was read on an MSD plate reader (Meso Scale Discovery). The remaining activity by calculated as follows: 00 Relative activity=100×(ELCUsample−ECLULC)/(ECLUHC−ECLULC). The low and high controls (LC/HC) are generated from lysate from wells without cells or with cells treated with 0.1% DMSO, respectively. IC50 values were calculated using XLFit software using a nonlinear regression model with a sigmoidal dose response and are shown in Table 4 and Table 5 below.

Structure (SMILES) | IC50 (K562 cells) | IC50 (HL60 cells) | IC50 (ABL1) | IC50 (ABL1 (T315I)) | IC50 (pCRKL in K562 cells)
COc1cc2[nH]cnc2cc1-c1c[nH]c2nc(NC(=O)[C@@H]3C[C@@H]3F)ccc12 [Compound 49, (1S,2S)-2-fluoro-N-[3-(6-methoxy-1H-1,3-benzodiazol-5-yl)-1H-pyrrolo[2,3-b]pyridin-6-yl]cyclopropane-1-carboxamide] | 295 nM | > 10000 nM | 4.33 nM | 3.04 nM | 585 nM
COc1cc2[nH]ncc2cc1-c1c[nH]c2nc(NC(=O)[C@@H]3C[C@@H]3F)ccc12 [Compound 50, (1S,2S)-2-fluoro-N-[3-(6-methoxy-1H-indazol-5-yl)-1H-pyrrolo[2,3-b]pyridin-6-yl]cyclopropane-1-carboxamide] | 120 nM | > 10000 nM | 3.9 nM | 2.51 nM | 151 nM
COc1c(-c2c[nH]c3nc(NC(=O)[C@H]4C[C@H]4F)ccc23)ccc2[nH]cnc12 [Compound 51, (1R,2R)-2-fluoro-N-[3-(4-methoxy-1H-1,3-benzodiazol-5-yl)-1H-pyrrolo[2,3-b]pyridin-6-yl]cyclopropane-1-carboxamide] | 668 nM | > 10000 nM | 15.4 nM | 4.41 nM | 1350 nM
COc1cc2[nH]cnc2cc1-c1c[nH]c2nc(NC(=O)[C@H]3C[C@H]3F)ccc12 [Compound 52, (1R,2R)-2-fluoro-N-[3-(6-methoxy-1H-1,3-benzodiazol-5-yl)-1H-pyrrolo[2,3-b]pyridin-6-yl]cyclopropane-1-carboxamide] | 829 nM | > 10000 nM | 8.95 nM | 13.7 nM | 3120 nM
COc1cc2[nH]ncc2cc1-c1c[nH]c2nc(NC(=O)[C@H]3C[C@H]3F)ccc12 [Compound 53, (1R,2R)-2-fluoro-N-[3-(6-methoxy-1H-indazol-5-yl)-1H-pyrrolo[2,3-b]pyridin-6-yl]cyclopropane-1-carboxamide] | 267 nM | 3110 nM | 6.92 nM | 5.63 nM | 584 nM
O=C(Nc1ccc2c(-c3ccc4nccn4c3)c[nH]c2n1)C1CC1 [Compound 56, N-(3-(imidazo[1,2-a]pyridin-6-yl)-1H-pyrrolo[2,3-b]pyridin-6-yl)cyclopropanecarboxamide] | 183 nM | 120 nM | 30.3 nM | 53.5 nM | 745 nM
COc1cc2cn[nH]c2cc1-c1c[nH]c2nc(NC(=O)[C@@H]3C[C@@H]3F)ccc12 [Compound 58, (1S,2S)-2-fluoro-N-[3-(5-methoxy-1H-indazol-6-yl)-1H-pyrrolo[2,3-b]pyridin-6-yl]cyclopropane-1-carboxamide] | 132 nM | > 10000 nM | 2.92 nM | 3.4 nM | 281 nM
COc1nc2nc[nH]c2cc1-c1c[nH]c2nc(NC(=O)C3CC3)ccc12 [Compound 61, N-(3-[5-methoxy-1H-imidazo[4,5-b]pyridin-6-yl]-1H-pyrrolo[2,3-b]pyridin-6-yl)cyclopropanecarboxamide] | 36.9 nM | > 10000 nM | 3.28 nM | 5.08 nM | 88.4 nM
CCOc1ncccc1-c1c[nH]c2nc(NC(=O)[C@@H]3C[C@@H]3F)ccc12 [Compound 62, (1S,2S)—N-(3-(2-ethoxypyridin-3-yl)-1H-pyrrolo[2,3-b]pyridin-6-yl)-2-fluorocyclopropane-1-carboxamide] | 137 nM | > 10000 nM | 20.8 nM | 43 nM | 171 nM
CCOc1ncccc1-c1c[nH]c2nc(NC(=O)[C@H]3C[C@H]3F)ccc12 [Compound 63, (1R,2R)—N-(3-(2-ethoxypyridin-3-yl)-1H-pyrrolo[2,3-b]pyridin-6-yl)-2-fluorocyclopropane-1-carboxamide] | 255 nM | > 10000 nM | 40.7 nM | 64.5 nM | 328 nM
